The source of these data is patent US12391660B2, “Heteroaromatic acetamide derivative, and preparation and use thereof” (Hangzhou Westan Pharmaceutical Technology Co., Ltd, priority 2019, dated 2025).

In experiment [1] the test system is asthmatic mice. Put plainly: Ovalbumin-induced asthma mouse model (BALF leukocyte counts, lung inflammation). The note with it: for percentage of eosinophils in BALF / percentage of macrophages in BALF / percentage of neutrophils in BALF / total number of leukocytes in BALF: intraperitoneal injection; for percentage of eosinophils in BALF / percentage of macrophages in BALF / percentage of neutrophils in BALF / total number of leukocytes in BALF / eosinophils in BALF: vs model control. Type of experiment: in vivo, BABL/c mice. From the text: 4. Effects of Compounds on Ovalbumin-Induced Asthma in Mouse and Rat Models
SPF-grade SD male rats (purchased from Zhejiang Academy of Medical Sciences, license number SCXK (Zhejiang) 2019-0002) with a body weight of 160-180 g; and SPF-grade female BABL/c mice (purchased from Zhejiang Weitong Lihua Experimental Animals Technology Co., Ltd., license number SCXK (Zhejiang) 2019-0001) with a body weight of 16-18 g were used. The above animals were raised by the Experimental Animal Center of Zhejiang Academy of Traditional Chinese Medicine.
Formulation of compound solution: compound was vortexed in a solvent system, dissolved by ultrasound, and prepared into a solution at a corresponding concentration, which was prepared just before use (the solvent system was composed of 5% Solutol HS 15, 5% DMSO and 90% physiological saline).
BABL/c mice or SD rats were randomly divided into: normal control group, model control group, dexamethasone group (0.72 mg/kg), and the respective test compound groups (one group for each dose), 10 mice in each group; 6 rats in each group.
Sensitization of mice: on the mornings of Day 0, Day 7, and Day 14, mice in the model control group and the respective drug administration groups were intraperitoneally injected with 0.2 ml of 10% OVA sensitizing solution (Yuanye Bio), and the normal control group was intraperitoneally injected with an equal volume of normal saline. In the afternoons of Day 7 and Day 14, mice in the model control group and the respective drug administration groups were intraperitoneally injected with 0.2 ml of 10% OVA (Sigma), and the normal control group was intraperitoneally injected with an equal volume of normal saline.
Mice: from Day 21, the normal control group and the model control group were not treated; the dexamethasone group and the respective test compound groups were intraperitoneally injected, 20 minutes before each challenge, with the corresponding drugs, injection volume: 0.1 ml/10 g, administered for 7 consecutive days; mice in the test compound-oral group were given the corresponding drugs by intragastric administration 30 minutes before the challenge; the test compound-atomization group or the dexamethasone-atomization group was given the corresponding drugs at different concentrations before challenge, 8 ml for each group, atomization for 30 minutes; the normal control group and the model control group were given no treatment. Administration was conducted for 7 consecutive days.
Mice: from Day 21, the mice in the model control group and the respective administration groups were placed in airtight containers in turn, and the challenging solution was atomized with an ultrasonic nebulizer (approximately 6-8 ml each time), twice a day, OVA challenging solution from Yuanye Shanghai was atomized in the morning, and OVA challenging solution from Sigma was atomized in the afternoon. Mice were challenged for 30 minutes per atomization, for 7 consecutive days. The normal control group was not treated. Mice in the model control group developing cyanosis of lips, accelerated breathing, unsteadiness during standing, nodding breathing, abdominal muscle cramps, etc. was deemed as a sign of success of the animal model.
24 hours after completion of the last challenge, the trachea of the mouse was exposed in front of the neck, a horizontal incision was made in the trachea with an ophthalmic scissor, and a 5 ml syringe-modified tracheal intubation needle was inserted, the left main bronchus was ligated, and the right main bronchus was intubated and tightened with surgical suture. Bronchoalveolar lavage was conducted 3 times with 0.3 ml normal saline, pumpback twice each time. The BALF was combined and collected in a 1.5 ml test tube, which was placed on ice or in a refrigerator at 4 degrees.
50 μl of the above BALF was taken, and 100 μl white blood cell counting diluent (2% iced acetic acid solution) was added thereto and mixed evenly therewith. […]

Experiment [2] deals with human TRPA1 (Homo sapiens (Human), UniProt O75762). Put plainly: FLIPR assay of inhibitory activity on human TRPA1 (calcium ion flux fluorescence). The class given is cell-based. The note with it: HEK293 cells stably expressing human TRPA1. Summed up:
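Tetracycline-induced (0.1 μg/ml) HEK293 cells stably expressing human TRPA1, loaded with 5 μM Fluo-4 AM for 1 h at 37° C. Compounds added in 1:5 dilutions from 30 μM (9 points, duplicate), then 3 mM CaCl2 after 10 min; fluorescence peak at 538 nm gave IC50.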

The structures appear in SMILES notation.

Chain of human TRPA1 (O75762 whole entry): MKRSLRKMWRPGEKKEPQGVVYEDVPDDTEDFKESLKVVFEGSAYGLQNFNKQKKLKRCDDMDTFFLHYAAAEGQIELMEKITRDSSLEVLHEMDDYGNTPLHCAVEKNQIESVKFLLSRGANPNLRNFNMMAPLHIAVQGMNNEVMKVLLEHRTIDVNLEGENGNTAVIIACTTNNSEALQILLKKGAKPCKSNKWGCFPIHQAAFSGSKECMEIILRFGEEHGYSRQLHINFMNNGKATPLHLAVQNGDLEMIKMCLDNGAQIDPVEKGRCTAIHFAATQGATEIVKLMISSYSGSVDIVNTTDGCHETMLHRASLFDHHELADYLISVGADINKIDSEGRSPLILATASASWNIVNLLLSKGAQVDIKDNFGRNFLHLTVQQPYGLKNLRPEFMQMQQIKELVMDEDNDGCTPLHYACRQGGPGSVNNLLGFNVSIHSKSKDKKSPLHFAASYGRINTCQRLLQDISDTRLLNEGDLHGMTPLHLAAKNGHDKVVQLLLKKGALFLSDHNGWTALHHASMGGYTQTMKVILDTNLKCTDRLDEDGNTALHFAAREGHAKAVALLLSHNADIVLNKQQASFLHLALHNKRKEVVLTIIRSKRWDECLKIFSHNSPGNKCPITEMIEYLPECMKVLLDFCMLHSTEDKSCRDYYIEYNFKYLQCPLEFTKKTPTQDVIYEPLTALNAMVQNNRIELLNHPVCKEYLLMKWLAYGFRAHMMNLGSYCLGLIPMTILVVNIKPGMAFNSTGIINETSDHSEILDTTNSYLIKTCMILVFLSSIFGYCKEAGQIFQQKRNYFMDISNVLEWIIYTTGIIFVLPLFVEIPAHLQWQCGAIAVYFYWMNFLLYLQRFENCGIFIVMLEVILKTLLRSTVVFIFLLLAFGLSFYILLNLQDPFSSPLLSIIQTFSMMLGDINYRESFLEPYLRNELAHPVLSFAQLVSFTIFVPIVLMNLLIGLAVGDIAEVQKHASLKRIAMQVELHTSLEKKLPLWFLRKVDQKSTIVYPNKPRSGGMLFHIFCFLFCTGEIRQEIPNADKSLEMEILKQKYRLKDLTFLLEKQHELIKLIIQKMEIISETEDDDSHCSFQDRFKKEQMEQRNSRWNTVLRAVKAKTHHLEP

In the case of `N#Cc1ccc(NC2(C(=O)N3CCN(c4ccc(C(F)(F)F)cc4)CC3)CCCC2)cc1` [Compound 1, 4-((1-(4-(4-(trifluoromethyl)phenyl)piperazine-1-carbonyl)cyclopentyl)amino)benzonitrile], in experiment [1] (P<0.01), the “percentage of eosinophils in BALF” value is given as “decreased”, the “percentage of macrophages in BALF” value is recorded as “increased”, the “percentage of neutrophils in BALF” value is “decreased” and the “total number of leukocytes in BALF” value is given as “decreased”. In addition, the “lung tissue inflammation area” value in experiment [1] (oral administration, P<0.05) was “significantly reduced”. Also, the “eosinophils in BALF” value in experiment [1] (oral administration, P<0.01) is “significantly reduced”. The airway inflammation score entry in experiment [1] (spray inhalation, P>0.05) is “decreasing trend, but not reaching a statistical significance”. Also, in experiment [1] (spray inhalation, respective dose groups, P<0.01, 0.05), the “lung tissue inflammation area” value was “reduce the lung tissue inflammation area of asthmatic mice in a dose-dependent manner”. Besides, in experiment [1] (spray inhalation, respective dose groups, P<0.05, 0.01), the “eosinophils in BALF” value is on record as “dose-dependent decrease”. The IC50 – broadly, the concentration that gives 50% inhibition – in experiment [2] is 40 nM.
With `CC(C)(C)C1CCN(C(=O)C2(Nc3ccc(C#N)cc3)CCCC2)CC1` [Compound 31, 4-((1-(4-(tert-butyl)piperidine-1-carbonyl)cyclopentyl)amino)benzonitrile], in experiment [1] (P<0.01), the “percentage of eosinophils in BALF” value is recorded as “decreased”, the “percentage of macrophages in BALF” value is given as “increased”, the “percentage of neutrophils in BALF” value is given as “decreased” and the “total number of leukocytes in BALF” value is on record as “decreased”. The IC50 in experiment [2] came to 87 nM.
